Data taken from the supplement of paper PMC11003180.

Legend:
Test in all cases: drug sensitivity score (DSS) from 5-dose viability curve (DSS (area-based score, 0 = no response)); higher = more sensitive (stronger viability inhibition); extreme values may be limits of the assay
[1] = system: MDCK wild-type - doxycycline; conditions: doxycycline: none; 72 h
Outline: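 Drug sensitivity scores came from Breeze pipeline dose-response fits of CellTiter-Glo luminescence, scaled per plate between vehicle and positive controls. The assay used parental MDCK cells without doxycycline at 2000 cells/well, exposed for 72 h to 528 oncology drugs at five doses (1-10,000 nM).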

[2] = system: MDCK p60AmotL2-inducible + doxycycline (p60AmotL2 expressing); conditions: doxycycline: 10 ng/mL; 72 h
Outline: (§1)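 Parental MDCK cells and MDCK cells with a doxycycline-inducible transgene were both grown with doxycycline at 10 ng/mL in the medium before plating, then dispensed at 2000 cells/well into 384-well plates pre-spotted with an oncology library of 528 drugs at five doses (1-10,000 nM). After 72 h at 37 °C, CellTiter-Glo luminescence was recorded and scaled on each plate between vehicle and positive controls. This scaled signal served as the viability readout, and drug sensitivity scores were derived from dose-response curve fits in the Breeze pipeline.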

[3] = system: MDCK wild-type + doxycycline; conditions: doxycycline: 10 ng/mL; 72 h
Outline: as §1

Compound NS(=O)(=O)NCCNc1nonc1/C(=N/O)Nc1ccc(F)c(Br)c1 [Epacadostat] has a drug sensitivity score [1] of 0, a drug sensitivity score [2] of 0 and a drug sensitivity score [3] of 0.

Work on COc1cccc2c1C(=O)c1c(O)c3c(c(O)c1C2=O)C[C@@](O)(C(=O)CO)C[C@@H]3O[C@H]1C[C@H](N)[C@@H](O)[C@H](C)O1 [Epirubicin] yielded a drug sensitivity score [1] of 5.9, a drug sensitivity score [2] of 11.6 and a drug sensitivity score [3] of 10.

In the case of CCOc1ccccc1-n1c(C(C)N2CCN(C(=O)COc3ccc(Cl)cc3)CC2)nc2ccccc2c1=O (configuration not stated) [Erastin], the drug sensitivity score [1] is reported as 0, the drug sensitivity score [2] is reported as 0 and the drug sensitivity score [3] is reported as 0.

With COc1cc(OC)cc(N(CCNC(C)C)c2ccc3ncc(-c4cnn(C)c4)nc3c2)c1 [Erdafitinib] the drug sensitivity score [1] was 0, the drug sensitivity score [2] was 0 and the drug sensitivity score [3] was 0.

For C=C1C[C@@H]2CC[C@@]34C[C@H]5O[C@H]6[C@@H](O3)[C@H]3O[C@H](CC[C@@H]3O[C@H]6[C@H]5O4)CC(=O)C[C@@H]3[C@@H](OC)[C@@H](C[C@H](O)CN)O[C@H]3C[C@H]3O[C@@H](CC[C@@H]1O2)C[C@@H](C)C3=C [Eribulin], the drug sensitivity score [1] was 17.3, the drug sensitivity score [2] was 23.4 and the drug sensitivity score [3] was 22.5.

With C#Cc1cccc(Nc2ncnc3cc(OCCOC)c(OCCOC)cc23)c1 [Erlotinib] the drug sensitivity score [1] was 3.4, the drug sensitivity score [2] was 15.4 and the drug sensitivity score [3] was 4.5.

Work on COc1cc([C@@H]2c3cc4c(cc3[C@@H](O[C@@H]3O[C@@H]5CO[C@@H](C)O[C@H]5[C@H](O)[C@H]3O)[C@H]3COC(=O)[C@H]23)OCO4)cc(OC)c1O [Etoposide] yielded a drug sensitivity score [1] of 4.3, a drug sensitivity score [2] of 9.5 and a drug sensitivity score [3] of 6.9.

CO[C@H]1C[C@@H]2CC[C@@H](C)[C@@](O)(O2)C(=O)C(=O)N2CCCC[C@H]2C(=O)O[C@H]([C@H](C)C[C@@H]2CC[C@@H](OCCO)[C@H](OC)C2)CC(=O)[C@H](C)/C=C(\C)[C@@H](O)[C@@H](OC)C(=O)[C@H](C)C[C@H](C)/C=C/C=C/C=C/1C [Everolimus] was tested, and the drug sensitivity score [1] was 2.1, the drug sensitivity score [2] was 8 and the drug sensitivity score [3] was 2.1.

Compound C=C1C[C@@H]2[C@H](CC[C@]3(C)C(=O)CC[C@@H]23)[C@@]2(C)C=CC(=O)C=C12 [Exemestane] has a drug sensitivity score [1] of 0, a drug sensitivity score [2] of 0 and a drug sensitivity score [3] of 0.

Work on CCn1c(=O)c(-c2ccc(Cl)cc2Cl)cc2cnc(Nc3ccc(N4CCNCC4)c(F)c3)nc21 [FRAX486] yielded a drug sensitivity score [1] of 1.7, a drug sensitivity score [2] of 2.3 and a drug sensitivity score [3] of 0.

Cc1cnc(Nc2ccc(OCCN3CCCC3)cc2)nc1Nc1cccc(S(=O)(=O)NC(C)(C)C)c1 [Fedratinib] gave a drug sensitivity score [1] of 6, a drug sensitivity score [2] of 6.9 and a drug sensitivity score [3] of 5.7.

Compound CON(C)C(=O)N1N=C(c2cc(F)ccc2F)S[C@@]1(CCCN)c1ccccc1 [Filanesib] has a drug sensitivity score [1] of 29.1, a drug sensitivity score [2] of 27.5 and a drug sensitivity score [3] of 28.7.

O=C(Nc1nc2cccc(-c3ccc(CN4CCS(=O)(=O)CC4)cc3)n2n1)C1CC1 [Filgotinib] showed a drug sensitivity score [1] of 0, a drug sensitivity score [2] of 0 and a drug sensitivity score [3] of 0.

CC(C)(C)NC(=O)[C@H]1CC[C@H]2[C@@H]3CC[C@H]4NC(=O)C=C[C@]4(C)[C@H]3CC[C@]12C [Finasteride] showed a drug sensitivity score [1] of 0, a drug sensitivity score [2] of 0 and a drug sensitivity score [3] of 0.

CCCCCCCCc1ccc(CCC(N)(CO)CO)cc1 [Fingolimod] gave a drug sensitivity score [1] of 6.7, a drug sensitivity score [2] of 6.7 and a drug sensitivity score [3] of 8.7.

In the case of O=c1[nH]c(=O)n([C@H]2C[C@H](O)[C@@H](CO)O2)cc1F [Floxuridine], the drug sensitivity score [1] is reported as 18.2, the drug sensitivity score [2] is reported as 22.7 and the drug sensitivity score [3] is reported as 21.7.

For Nc1nc(F)nc2c1ncn2[C@@H]1O[C@H](CO)[C@@H](O)[C@@H]1O [Fludarabine], the drug sensitivity score [1] was 0, the drug sensitivity score [2] was 0 and the drug sensitivity score [3] was 0.

Work on O=c1[nH]cc(F)c(=O)[nH]1 [Fluorouracil] yielded a drug sensitivity score [1] of 8.6, a drug sensitivity score [2] of 9.2 and a drug sensitivity score [3] of 9.7.

Work on CC(C)C(=O)Nc1ccc([N+](=O)[O-])c(C(F)(F)F)c1 [Flutamide] yielded a drug sensitivity score [1] of 0, a drug sensitivity score [2] of 0 and a drug sensitivity score [3] of 0.

Compound COc1cc2c(Oc3ccc(NC(=O)C4(C(=O)Nc5ccc(F)cc5)CC4)cc3F)ccnc2cc1OCCCN1CCOCC1 [Foretinib] has a drug sensitivity score [1] of 0, a drug sensitivity score [2] of 2.8 and a drug sensitivity score [3] of 1.2.

In the case of COc1cc(Nc2ncc(F)c(Nc3ccc4c(n3)N(COP(=O)(O)O)C(=O)C(C)(C)O4)n2)cc(OC)c1OC [Fostamatinib], the drug sensitivity score [1] is reported as 0.7, the drug sensitivity score [2] is reported as 4.6 and the drug sensitivity score [3] is reported as 1.8.

Work on C[C@]12CC[C@@H]3c4ccc(O)cc4C[C@@H](CCCCCCCCC[S+]([O-])CCCC(F)(F)C(F)(F)F)[C@H]3[C@@H]1CC[C@@H]2O (some centres not stated) [Fulvestrant] yielded a drug sensitivity score [1] of 0, a drug sensitivity score [2] of 0 and a drug sensitivity score [3] of 0.

Work on CC1(C)OCCn2c1nc1c(N3CCOCC3)nc(-c3cnc(N)nc3)nc12 [GDC-0084] yielded a drug sensitivity score [1] of 7, a drug sensitivity score [2] of 14.9 and a drug sensitivity score [3] of 10.2.

For O=C(NOCCO)c1ccc2cncn2c1Nc1ccc(I)cc1F [GDC-0623], the drug sensitivity score [1] was 1.4, the drug sensitivity score [2] was 0.3 and the drug sensitivity score [3] was 0.

C[C@H]1CN(C2COC2)CCN1c1ccc(Nc2cc(-c3ccnc(N4CCn5c(cc6c5CC(C)(C)C6)C4=O)c3CO)cn(C)c2=O)nc1 [GDC-0853] gave a drug sensitivity score [1] of 0, a drug sensitivity score [2] of 0 and a drug sensitivity score [3] of 0.

O[C@H](C[C@H]1c2c(F)cccc2-c2cncn21)[C@H]1CC[C@H](O)CC1 [GDC-0919] showed a drug sensitivity score [1] of 0, a drug sensitivity score [2] of 0 and a drug sensitivity score [3] of 0.

For CNc1nc(Nc2cn(C(C)(C)C#N)nc2C)ncc1C(F)(F)F [GNE-0877], the drug sensitivity score [1] was 0, the drug sensitivity score [2] was 0 and the drug sensitivity score [3] was 0.

Work on CCNc1nc(Nc2cc(F)c(C(=O)N3CCOCC3)cc2OC)ncc1C(F)(F)F [GNE-7915] yielded a drug sensitivity score [1] of 0, a drug sensitivity score [2] of 0 and a drug sensitivity score [3] of 0.

In the case of CCCc1cc(C)[nH]c(=O)c1CNC(=O)c1cc(-c2ccnc(N3CCN(C)CC3)c2)cc2c1cnn2C(C)C [GSK343], the drug sensitivity score [1] is reported as 0, the drug sensitivity score [2] is reported as 0 and the drug sensitivity score [3] is reported as 0.

With CCCOc1ccn2c(C(C)=O)cc(-c3ccccc3S(C)(=O)=O)c2c1 [GSK2801] the drug sensitivity score [1] was 0, the drug sensitivity score [2] was 0 and the drug sensitivity score [3] was 0.

CCOC(=O)CCNc1cc(N2CCc3ccccc3CC2)nc(-c2ccccn2)n1 [GSK-J4] showed a drug sensitivity score [1] of 13.7, a drug sensitivity score [2] of 3.9 and a drug sensitivity score [3] of 3.8.

C[C@@H]1C=C2C(=O)O[C@@H]3CC[C@H](C1)[C@]23O [Galiellalactone] was tested, and the drug sensitivity score [1] was 4.3, the drug sensitivity score [2] was 2.5 and the drug sensitivity score [3] was 2.

Cc1cccc(-c2nn3c(c2-c2ccnc4ccc(C(N)=O)cc24)CCC3)n1 [Galunisertib] was tested, and the drug sensitivity score [1] was 0, the drug sensitivity score [2] was 0 and the drug sensitivity score [3] was 0.

For Cc1cc(Nc2cc(CN3CCOCC3)c3nc(C)c(Cc4ccc(Cl)cc4F)n3n2)n[nH]1 [Gandotinib], the drug sensitivity score [1] was 6.3, the drug sensitivity score [2] was 8.2 and the drug sensitivity score [3] was 5.5.
